US10828284B2, “Compositions and methods for treating conditions related to elevated levels of eosinophils and/or basophils” (Knopp Biosciences LLC, priority 2013, dated 2020)
Read-outs that look alike come from different tables or passages of the source.

Columns and labels:
eosinophils [1] = system: eosinophils
Protocol: In a 39-week repeat-dose toxicology study, minipigs were dosed at 0, 7.5, 25, and 75 mg/kg dexpramipexole by daily oral gavage through Study Day 45 and at 0, 7.5, 25, and 50 mg/kg dexpramipexole from Study Day 46 to study completion.

eosinophils [2] = details: for mean eosinophils at week 16 recovered to, of baseline levels: after one-month washout following week 12
Protocol: The Phase 2 trial was a two-part, double-blind study that evaluated the safety, tolerability, and clinical effects of dexpramipexole in ALS patients.
In Part 1, subjects were randomized to placebo (n=27), 50 mg/day (n=23), 150 mg/day (n=26), or 300 mg/day dexpramipexole (n=26) for 12 weeks.

eosinophils [3] = system: eosinophils; remark: listed apart in the source
Protocol: (§1) The phase 3 clinical trial was a double-blind study of dexpramipexole in ALS patients randomized 1:1 to placebo or dexpramipexole 300 mg daily treatment. Hematology parameters were collected as part of routine safety monitoring. Eosinophil and basophil counts were retrospectively analyzed by visit.
Eosinophil levels were summarized over available time points and analyzed by ANOVA testing the effect of treatment vs. placebo on mean changes in serum eosinophil counts from baseline. Subjects with baseline eosinophils from 0 to 0.02×10^9/L (constituting less than 2% of all subjects analyzed) were censored from the primary analysis because of the inherent limitation to observe a decline from baseline.
Statistical analysis of the change from baseline was performed at month 6 to remove the effect of study dropouts in later months.

basophils = details: 300 mg daily, remained reduced through month 12
Protocol: as §1
Changes in basophil counts were also analyzed in the Phase 3 trial.

eosinophils [4] = details: OVA mice, 100 mg/kg, day 42, p=0.0041
[5] = system: infiltrating white blood cells; details: OVA mice, 30 and 100 mg/kg, day 42, compared to OVA
[6] = humans, exposures up to 18 months

SMILES: CCCN[C@@H]1CCc2nc(N)sc2C1 [dexpramipexole, (6R)-2-amino-4,5,6,7-tetrahydro-6-(propylamino)benzothiazole]
- safety assessment of eosinophil differences (eosinophils [1]; minipig, in vivo): not considered adverse
- effect on eosinophils (eosinophils [1]; minipigs, 0, 7.5, 25 and 75 (50 from Study Day 46) mg/kg daily oral gavage, 39 weeks): dose- and time-dependent reduction in eosinophils
- mean eosinophils at week 16 recovered to, of baseline levels (eosinophils [2]; 150 mg/day group): 47%
- mean eosinophils at week 16 recovered to, of baseline levels (eosinophils [2]; 300 mg/day group): 73%
- effect on eosinophil counts (eosinophils [2]; ALS subjects, Phase 2): dose- and time-dependent decrease in eosinophil counts
- effect on eosinophil counts in a subject with hypereosinophilia at baseline (eosinophils [2]; one Phase 2 subject, Part 2 baseline, persisted through month 12): decrease in eosinophil counts
- effect on peripheral blood eosinophil count (eosinophils [3]; 300 mg daily, after 8-12 weeks of treatment, persisted for the duration of the trial): profound decrease
- effect on eosinophil counts in a subject with elevated baseline eosinophil counts (eosinophils [3]; Phase 3 subject with highest baseline eosinophil count, persisted through month 12): decrease in eosinophil counts
- decrease in eosinophil count in subjects with higher eosinophil counts (eosinophils [3]; subjects (n=42) with baseline >0.25×10^9/L, after 6 months of treatment): 75%
- time at which basophil decline reached plateau (basophils): ~4 month
- circulating levels of eosinophils compared to vehicle-treated controls (eosinophils [4]): significantly reduced
- infiltrating white blood cells in bronchoalveolar lavage fluid [5]: dose-dependent decrease in infiltrating white blood cells
- tolerability [6]: well-tolerated
